Assay: UV absorption spectrum in ethanol (UV-A screening power)
Type: physicochemical
Details: UV (EtOH); for E1% / εmax: at λmax

Row | Compound | λmax [nm] | E1% | εmax
1 | C=C(C)COc1ccc(C=C(C#N)S(=O)(=O)c2ccccc2)cc1 [2-benzenesulfonyl-3-[4-(2-methylallyloxy)phenyl]acrylonitrile] | 345 | 736 | –
2 | C[Si](C)(C)CCCOc1ccc(/C=C(\C#N)S(=O)(=O)c2ccccc2)cc1 [Example 1, 2-benzenesulfonyl-3-[4-(3-trimethylsilanylpropoxy)phenyl]acrylonitrile] | 347 | 813 | 32 500
3 | CC(COc1ccc(/C=C(\C#N)S(=O)(=O)c2ccccc2)cc1)C[Si](C)(O[Si](C)(C)C)O[Si](C)(C)C (centres unmarked) [Example 2, [4-[2-methyl-3-[1,3,3,3-tetramethyl-1-[(trimethylsilyl)oxy]disiloxanyl]propyloxy]phenyl]-2-(benzenesulfonyl)acrylonitrile] | 348 | 632 | 35 500

Source: patent publication US7138108B2, “Photoprotective UV-screening compositions comprising (phenylsulfonyl) acrylonitrile-substituted silanes/siloxanes” (L'Oreal, priority 2002, dated 2006)
